Source: US8691762B2, “Methods and assays for treating subjects with SHANK3 deletion, mutation or reduced expression” (Mount Sinai School of Medicine, priority 2010, dated 2014)
“Also recorded” adds a separate entry of the source.

Tests used:
Shank3 heterozygous mice [1] = experiment: Motor performance and learning, latency to fall off a rotating rod; type: in vivo, mouse; conditions: IGF-1 240 μg/kg/day for 2 weeks; male Shank3 Het vs vehicle
Experimental: FIG. 11. IGF-1 treatment reverses motor deficits in Shank3 heterozygous mice.
Phelan-McDermid syndrome frequently presents with hypotonia and at least transient motor deficits, and subtle motor deficits have been observed in Shank3-heterozygous mice (Bozdagi et al., 2010). To determine whether treatment with full-length IGF-1 may improve motor performance in Shank3-deficient mice, male heterozygous mice were treated with either vehicle or IGF-1 (240 μg/kg/day for 2 weeks).

Akt = experiment: Western blot for total- and phospho-Akt in hippocampus; type: in vivo, mouse
Description: FIG. 6. IGF1 treatment activates PI3K-Akt pathway in the hippocampus. PI3K binds to AMPARs and is required to maintain AMPAR surface expression during long-term potentiation.
It is interesting to note that IGF-1 activates the mTOR/Akt pathway as this has been implicated in other neurodevelopmental disorders (Veenstra-Vanderweele et al., 2012).

Shank3 heterozygous mice [2] = experiment: Long-term potentiation at Schaffer collateral-CA1 synapses, hippocampal slices from treated Shank3 heterozygous mice; type: in vivo, mouse; conditions: for LTP (normalized field EPSP slope), higher dose: rhIGF-1 i.p. 240 μg/kg/day for 2 weeks from P13-15
Experimental: FIG. 8. […] Ampakine CX1837 or HPCD vehicle is administered daily via i.p. injections (1.5 mg/kg body weight) starting at 2 weeks old and continued for 4 weeks for electrophysiological recordings.
(§1) FIG. 10A-10B. Recombinant human IGF-1 (rhIGF-1) reverses deficits in long-term potentiation and basal synaptic properties at Schaffer collateral-CA1 synapses in Shank3 heterozygous mice in a dose-dependent fashion. rhIGF-1 is administered daily via i.p. injections (120 or 240 μg/kg body weight) starting at P13-15 and continued for 2 weeks for electrophysiological recordings. A. LTP was induced with high-frequency stimulation and normalized field EPSP slope was plotted as a function of time. […] B. AMPA receptor responses were assessed in the mice. Slices were incubated in the presence of APV and mean field EPSP slope as a function of fiber volley is shown for slices derived from wildtype (WT), Shank3 heterozygous (Het) mice, and Het injected with rhIGF-1. Deficits in AMPA receptor signaling observed in Shank3 heterozygotes were reversed with 2-week rhIGF-1 treatment.

AMPA receptor = AMPA receptor component of I/O function (field EPSP slope vs fiber volley in presence of APV); type: in vivo, mouse; conditions: Shank3 Het
Experimental: as §1
IGF-1 has been approved for clinical use as a recombinant full-length protein. Full-length IGF-1 enters the CNS through an interaction with lipoprotein-related receptor 1 (LRP1), after activity dependent cleavage of IGF binding protein-3 (IGFBP-3) by matrix metalloproteinase-9 (MMP9) (Nishijima et al., 2010). […]

Shank3 KO mice = conditions: (1-3)IGF-1 peptide, same protocol as heterozygotes, N=2
Experimental: Brief experimental procedures: Hippocampal slices (350 μm) are prepared from 1-3 month old Shank3 heterozygous, Shank3 knockout, and wildtype littermates, treated with (1-3) IGF-1 peptide, full-length IGF1, growth hormone, AMPAkine or saline or other appropriate control. Slices are perfused with Ringer's solution, bubbled with 95% O2/5% CO2, at 32° C., during extracellular recordings. Baseline of field excitatory postsynaptic potentials (fEPSPs) recorded from stratum radiatum in area CA1, evoked by stimulation of the Schaffer collateral-commissural afferents with bipolar tungsten electrodes placed into area CA3. Long-term potentiation (LTP) is induced either by a high-frequency stimulus (four trains of 100 Hz, 1 s stimulation separated by 5 min), or by theta-burst stimulation (TBS) (10 bursts of four pulses at 100 Hz separated by 200 ms), with a success rate >90% for control and genetically-modified animals with all stimulation protocols. To induce long-term depression (LTD), Schaffer collaterals were stimulated by a low frequency stimulus (900 pulses at 1 Hz for 15 min) or paired-pulse low frequency stimulus. LTD was induced with a success rate >90% for control animals. […]

IGF-1: recombinant human IGF-1, a 7.6 kDa protein, SEQ ID NO:3
Latency to fall off rotating rod / motor performance (Shank3 heterozygous mice [1]): significantly longer latencies; also recorded: Significant enhancement of motor performance | phospho-Akt/Akt ratio (Akt; hippocampal lysates, Shank3 Het injected 2 weeks, n=10, vehicle 0.36±0.03 (n=8), 1-tailed p=0.040): 0.55±0.04 | phosphorylation of Akt (pAkt1) (Akt; hippocampus, heterozygote mice, vs vehicle injected, n=3, P=0.0366): increase | LTP (normalized field EPSP slope), lower dose (Shank3 heterozygous mice [2]; rhIGF-1 i.p. 120 μg/kg/day for 2 weeks, Shank3 Het): not associated with significant reversal | LTP (normalized field EPSP slope), higher dose (Shank3 heterozygous mice [2]; Shank3 Het): effective in rescuing defective LTP | LTP (normalized field EPSP slope), higher dose (Shank3 heterozygous mice [2]; Shank3 Het, listed as rhIGF-1): reversed by the higher | Mean slope of the I/O function (AMPA receptor component) (AMPA receptor; IGF-1 240 μg/kg/day i.p. 2 weeks, wildtype 0.625±0.08, untreated Het 0.31±0.045, p=0.004): 0.618±0.075 | Deficits in AMPA receptor signaling (AMPA component of I/O function) (AMPA receptor; rhIGF-1 i.p. 240 μg/kg/day for 2 weeks, slices in APV): reversed

glycine-proline-glutamic acid [(1-3)IGF-1]
LTP (fEPSP versus time) (Shank3 KO mice): reversed the impairment in LTP | LTP (normalized field EPSP slope) (Shank3 heterozygous mice [2]; (1-3)IGF-1 i.p. 0.01 mg/g (10 μg/g/day) daily for 2 weeks from P13-15, Shank3 Het vs vehicle): reversed; also recorded: restored normal hippocampal LTP
